From US11161818B2, “Quinolone derivatives, preparation methods and application thereof” (Hangzhou Normal University, priority 2019, dated 2021)
Counter-ions that a name gives are not always drawn.

How the values were obtained:
[1] = tested on: S. aureus; assay: Bactericidal activity test, filter paper inhibition zone; format: cell-based, Staphylococcus aureus; conditions: filter paper diameter 6 mm, 37° C., 24 hours; for S. aureus inhibition zone: sample concentration 10 mg/mL
Protocol: (§1) In order to determine the practicability of the compounds synthesized in this patent, some of the compounds are selected as representatives, and the bactericidal activity is determined by conventional methods. The specific operation procedures are as follows:
(§2) In a super clean bench, the preserved strains are transferred to a slant tube, cultured in an incubator at 37° C. for 24 hours, and then taken out and preserved at low temperature for antibacterial experiments. The well-grown colonies are scraped and transferred into a liquid medium with the inoculation ring, shaken to give a uniform mixture, and cultured in the incubator at 37° C. for 24 hours. The culture medium is poured into plates, about 15 ml for each plate, which are placed horizontally, and after solidification, placed upside down into the incubator at 37° C.; after two days, it is observed whether there is colony growth. If not, it can be used for the next experiment, otherwise, the plate needs to be poured again. 0.5 ml of bacterial suspension is pipetted into the plate, which is left to stand still for about 5 minutes, and then spread evenly with a coating rod; two duplicate plates are set for each kind of bacteria. In the super clean bench, the plates are divided equally and parallel groups are set. Each piece of filter paper (6 mm in diameter) is a paste. The filter paper is picked up with tweezers, dipped into a sample, taken out, placed at a given position of the plate, and gently pressed to make the filter paper firmly adhered thereto. The plate is placed (upside down) in the incubator for culture; the temperature is set at 37° C.; and after 24 hours culture, the plate is observed and the results are recorded.

[2] = tested on: E. coli; assay: as above; format: cell-based; conditions: filter paper diameter 6 mm, 37° C., 24 hours; for E. coli activity inhibition zone: sample concentration 10 mg/mL
Protocol: as §1, §2

[3] = tested on: MRSA (methicillin-resistant Staphylococcus aureus); assay: as above; format: cell-based; conditions: filter paper diameter 6 mm, 37° C., 24 hours; for MRSA inhibition zone: sample concentration 10 mg/mL
Protocol: as §1, §2

[4] = tested on: B. subtilis; assay: as above; format: cell-based, Bacillus subtilis; conditions: filter paper diameter 6 mm, 37° C., 24 hours; for B. subtilis inhibition zone: sample concentration 10 mg/mL
Protocol: as §1, §2

[5] = tested on: lung cancer cells (A549); assay: Anti-tumor activity test, MTT method; format: cell-based; conditions: concentration 0.5 mg/ml (DMSO as solvent), 44 + 4 hours culture
Protocol: (§3) For the anti-tumor activity test of these compounds, three kinds of common tumor cells are taken as research subjects: non-small cell lung cancer cells (HCC827), lung cancer cells (A549) and liver cancer cells (HepG2). Under the action of the new quinolone derivatives, the growth of the cells is observed, and the proliferation of tumor cells is measured by MTT method. The specific operation is as follows: the tumor cells are inoculated into 96-well culture plate in a particular amount of cells, with a cell density of 2×10^4 cells/ml; after overnight in the incubator with a concentration of 5% CO2 at 37° C., the screened samples are added (reference can be made to Table 1 for sample concentration; 10 μL/well of corresponding concentration of drugs are added to the dosing group, while 10 μL/well of PBS are added to the control group). After 44 hours of culture, 10 μL/well of MTT are added to continue the culture for 4 hours, which is dissolved with DMSO, shaken, and detected with a 570 nm enzyme-labeled instrument.

[6] = tested on: non-small cell lung cancer cells (HCC827); assay: Anti-tumor activity test, MTT method; format: cell-based; conditions: concentration 0.5 mg/ml (DMSO as solvent), 44 + 4 hours culture
Protocol: as §3

[7] = tested on: liver cancer cells (HepG2); assay: Anti-tumor activity test, MTT method; format: cell-based, human; conditions: concentration 0.5 mg/ml (DMSO as solvent), 44 + 4 hours culture
Protocol: as §3

With `CCOC(=O)c1cn(-c2ccc(Oc3ccc(Cl)cc3)cc2)c2cc(Cl)c(F)cc2c1=O` [Compound I-3, ethyl 7-chloro-1-(4-(4-chlorophenoxy)phenyl)-6-fluoro-4-oxy-1,4-dihydroquinoline-3-carboxylate] the “S. aureus inhibition zone” value [1] was 20 mm, the “E. coli activity inhibition zone” value [2] was 24 mm and the MRSA inhibition zone [3] was 8 mm. The “B. subtilis inhibition zone” value [4] was 18 mm, the IC50 [5] was over 10 µM and the IC50 [6] was 4.5 µM. It also gave an IC50 [7] of 7.5 µM.
In the case of `CCOC(=O)c1cn(-c2ccc(Oc3ccccc3)cc2)c2cc(Cl)c(F)cc2c1=O` [Compound I-4, ethyl 7-chloro-6-fluoro-4-oxy-1-(4-phenoxyphenyl)-1,4-dihydroquinoline-3-carboxylate], the “S. aureus inhibition zone” value [1] is reported as 19 mm, the “E. coli activity inhibition zone” value [2] is reported as 27 mm and the MRSA inhibition zone [3] is reported as 9 mm. The “B. subtilis inhibition zone” value [4] was 23 mm.
For `CCOC(=O)c1cn(-c2ccc(Oc3ccc(F)cc3)cc2)c2cc(Cl)c(F)cc2c1=O` [Compound I-7, ethyl 7-chloro-6-fluoro-1-(4-(4-fluorophenoxy)phenyl)-4-oxy-1,4-dihydroquinoline-3-carboxylate], the “S. aureus inhibition zone” value [1] was 15 mm, the “E. coli activity inhibition zone” value [2] was 17 mm and the MRSA inhibition zone [3] was 7 mm. The “B. subtilis inhibition zone” value [4] was 13 mm.
For `CCOC(=O)c1cn(-c2ccc(Oc3ccc(C)cc3)cc2)c2cc(Cl)c(F)cc2c1=O` [Compound I-8, ethyl 7-chloro-6-fluoro-1-(4-(4-toluoxy)phenyl)-4-oxy-1,4-dihydroquinoline-3-carboxylate], the “S. aureus inhibition zone” value [1] was 13 mm, the “E. coli activity inhibition zone” value [2] was 12 mm and the MRSA inhibition zone [3] was 10 mm. The “B. subtilis inhibition zone” value [4] was 12 mm.
For `CCOC(=O)c1cn(-c2ccc(Oc3ccc(C(C)(C)C)cc3)cc2)c2cc(Cl)c(F)cc2c1=O` [Compound I-10, ethyl 7-chloro-6-fluoro-1-(4-(4-tert-butylphenoxy)phenyl)-4-oxy-1,4-dihydroquinoline-3-carboxylate], the “S. aureus inhibition zone” value [1] was 20 mm, the “E. coli activity inhibition zone” value [2] was 24 mm and the MRSA inhibition zone [3] was 14 mm. The “B. subtilis inhibition zone” value [4] was 20 mm.
`CCOC(=O)c1cn(-c2ccc(Oc3ccc(OC)cc3)cc2)c2cc(Cl)c(F)cc2c1=O` [Compound I-11, ethyl 7-chloro-6-fluoro-1-(4-(4-methoxyphenoxy)phenyl)-4-oxy-1,4-dihydroquinoline-3-carboxylate] was tested, and the “S. aureus inhibition zone” value [1] was 11 mm, the “E. coli activity inhibition zone” value [2] was 22 mm and the MRSA inhibition zone [3] was 7 mm. The “B. subtilis inhibition zone” value [4] was 13 mm.
For `CCOC(=O)c1cn(-c2ccc(Oc3ccc(OC(F)(F)F)cc3)cc2)c2cc(Cl)c(F)cc2c1=O` [Compound I-12, ethyl 7-chloro-6-fluoro-1-(4-(4-trifluoromethoxyphenoxy)phenyl)-4-oxy-1,4-dihydroquinoline-3-carboxylate], the “S. aureus inhibition zone” value [1] was 24 mm, the “E. coli activity inhibition zone” value [2] was 28 mm and the MRSA inhibition zone [3] was 8 mm. The “B. subtilis inhibition zone” value [4] was 8 mm, the IC50 [5] was over 10 µM and the IC50 [6] was over 10 µM. For the same compound, the IC50 [7] was 8.5 µM.
With `CCOC(=O)c1cn(-c2ccc(Oc3ccc(C(F)(F)F)cc3)cc2)c2cc(Cl)c(F)cc2c1=O` [Compound I-14, ethyl 7-chloro-6-fluoro-1-(4-(4-trifluoromethylphenoxy)phenyl)-4-oxy-1,4-dihydroquinoline-3-carboxylate] the “S. aureus inhibition zone” value [1] was 20 mm, the “E. coli activity inhibition zone” value [2] was 27 mm and the MRSA inhibition zone [3] was 12 mm. For the same compound, the “B. subtilis inhibition zone” value [4] was 15 mm.
`CCOC(=O)c1cn(-c2ccc(Oc3ccc(Cl)c(Cl)c3)cc2)c2cc(Cl)c(F)cc2c1=O` [Compound I-15, ethyl 7-chloro-1-(4-(3,4-dichlorophenoxy)phenyl)-6-fluoro-4-oxy-1,4-dihydroquinoline-3-carboxylate] was tested, and the “S. aureus inhibition zone” value [1] was 20 mm, the “E. coli activity inhibition zone” value [2] was 21 mm and the MRSA inhibition zone [3] was 9 mm. For the same compound, the “B. subtilis inhibition zone” value [4] was 18 mm.
In the case of `CCOC(=O)c1cn(-c2ccc(Oc3ccc(C)c(C)c3)cc2)c2cc(Cl)c(F)cc2c1=O` [Compound I-17, ethyl 7-chloro-1-(4-(3,4-dimethylphenoxyl)phenyl)-6-fluoro-4-oxy-1,4-dihydroquinoline-3-carboxylate], the “S. aureus inhibition zone” value [1] is reported as 20 mm, the “E. coli activity inhibition zone” value [2] is reported as 29 mm and the MRSA inhibition zone [3] is reported as 7 mm. The “B. subtilis inhibition zone” value [4] was 11 mm.
For `CCOC(=O)c1cn(Cc2ccc(Oc3ccc(Cl)cc3)cc2)c2cc(Cl)c(F)cc2c1=O` [Compound I-20, ethyl 7-chloro-1-(4-(4-chlorophenoxy)benzyl)-6-fluoro-4-oxy-1,4-dihydroquinoline-3-carboxylate], the “S. aureus inhibition zone” value [1] was 21 mm, the “E. coli activity inhibition zone” value [2] was 24 mm and the MRSA inhibition zone [3] was 10 mm. For the same compound, the “B. subtilis inhibition zone” value [4] was 12 mm.
`CCOC(=O)c1cn(Cc2ccc(Oc3ccccc3C)cc2)c2cc(Cl)c(F)cc2c1=O` [Compound I-22, ethyl 7-chloro-1-(4-(2-methylphenoxy)benzyl)-6-fluoro-4-oxy-1,4-dihydroquinoline-3-carboxylate] was tested, and the “S. aureus inhibition zone” value [1] was 23 mm, the “E. coli activity inhibition zone” value [2] was 30 mm and the MRSA inhibition zone [3] was 14 mm. The “B. subtilis inhibition zone” value [4] was 18 mm.
`O=C(O)c1cn(-c2ccc(Oc3ccc(Cl)cc3)cc2)c2cc(Cl)c(F)cc2c1=O` [Compound I-26, 7-chloro-1-(4-(4-chlorophenoxy)phenyl)-6-fluoro-4-oxy-1,4-dihydroquinoline-3-carboxylic acid] was tested, and the “S. aureus inhibition zone” value [1] was 29 mm, the “E. coli activity inhibition zone” value [2] was 29 mm and the MRSA inhibition zone [3] was 15 mm. The “B. subtilis inhibition zone” value [4] was 24 mm, the IC50 [5] was over 10 µM and the IC50 [6] was 5 µM. For the same compound, the IC50 [7] was 5 µM.
In the case of `COc1ccc(Oc2ccc(-n3cc(C(=O)O)c(=O)c4cc(F)c(Cl)cc43)cc2)cc1` [Compound I-28, 7-chloro-1-(4-(4-methoxyphenoxy)phenyl)-6-fluoro-4-oxy-1,4-dihydroquinoline-3-carboxylic acid], the “S. aureus inhibition zone” value [1] is reported as 29 mm, the “E. coli activity inhibition zone” value [2] is reported as 25 mm and the MRSA inhibition zone [3] is reported as 11 mm. The “B. subtilis inhibition zone” value [4] was 28 mm.
For `C[C@H]1COc2c(N3CCN(C)CC3)c(F)cc3c(=O)c(C(=O)O)cn1c23` [Control group, levofloxacin hydrochloride, reference compound], the zone of inhibition at 5000 µg/mL ([1]; Staphylococcus aureus, control concentration 5 mg/mL) was 26 mm, the zone of inhibition at 5000 µg/mL ([2]; Escherichia coli, control concentration 5 mg/mL) was 25 mm and the zone of inhibition at 5000 µg/mL ([3]; Staphylococcus aureus, MRSA, control concentration 5 mg/mL) was 12 mm. It also gave a zone of inhibition at 5000 µg/mL ([4]; Bacillus subtilis, control concentration 5 mg/mL) of 22 mm.
For `CC(=O)O[C@H]1C(=O)[C@@]2(C)[C@H]([C@H](OC(=O)c3ccccc3)[C@]3(O)C[C@H](OC(=O)[C@H](O)[C@@H](NC(=O)c4ccccc4)c4ccccc4)C(C)=C1C3(C)C)[C@]1(OC(C)=O)CO[C@@H]1C[C@@H]2O` [Paclitaxel, reference compound], the IC50 ([5]; Homo sapiens) was 3.5 µM, the IC50 ([6]; Homo sapiens) was 2.5 µM and the IC50 ([7]; Homo sapiens) was 1.5 µM.
